Earlier results as cited in the PKSmart pharmacokinetics tables (Seal et al. 2025).

Assay: Lombardo, Berellini, Obach 2018, Drug Metab Dispos 46:1466, doi 10.1124/dmd.118.082966
Settings: human; for MRT / Vd / half-life / clearance: in vivo, iv; for fraction unbound: plasma

| SMILES | MRT [h] | Vd [L/kg] | half-life [h] | clearance [mL/min/kg] | fraction unbound |
| --- | --- | --- | --- | --- | --- |
| CC[C@]1(O)C[C@@H]2CN(CCc3c([nH]c4ccccc34)[C@@](C(=O)OC)(c3cc4c(cc3OC)N(C)[C@H]3[C@@](O)(C(=O)OC)[C@H](OC(C)=O)[C@]5(CC)C=CCN6CC[C@]43[C@@H]65)C2)C1 | 150 | 28 | 67 |  |  |
| C[C@H](CN1CCOCC1)C(C(=O)N1CCCC1)(c1ccccc1)c1ccccc1 | 3.88 | 0.47 | 3.18 | 2.19 |  |
| CC(=O)O[C@H]1C[C@@H]2CC[C@@H]3[C@H](CC[C@@]4(C)[C@H]3C[C@H]([N+]3(C)CCCCC3)[C@@H]4OC(C)=O)[C@@]2(C)C[C@@H]1[N+]1(C)CCCCC1 | 2.2 | 0.2 | 1.9 |  | 0.09 |
| CON=C(C(=O)NC1C(=O)N2C(C(=O)O)=C(CSc3cnns3)CS[C@H]12)c1csc(N)n1 (some centres not stated) | 0.82 | 0.2 | 1.14 | 4.1 | 0.12 |
| O=C(O[C@H]1C[C@H]2CC3C[C@@H](C1)N2CC3=O)c1c[nH]c2ccccc12 | 0.19 | 2 | 0.13 |  | 0.49 |
| CC(=O)O[C@@]12CO[C@@H]1C[C@H](O)[C@@]1(C)C(=O)C(=O)C3C(C)[C@@H](OC(=O)C(O)C(NC(=O)OC(C)(C)C)c4ccccc4)C[C@@](O)([C@@H](OC(=O)c4ccccc4)[C@H]21)C3(C)C (some centres not stated) | 2.5 | 2.1 | 11 | 14 | 0.04 |
| CN(C)N=Nc1nc[nH]c1C(N)=O | 7.8 | 1.2 | 6.2 | 2.6 | 1 |
| COc1cc(C2c3cc4c(cc3C(OC3OC5COC(C)OC5C(O)C3N(C)C)C3COC(=O)C23)OCO4)cc(OC)c1O (configuration not stated) | 17 | 0.3 | 14 | 0.4 | 0.013 |
| CNC(=O)Oc1ccc2c(c1)[C@@]1(C)CCN(C)[C@@H]1N2C | 0.9 | 3.9 | 1 | 72 | 0.64 |
| N=C(N)N=c1[nH]c(CSCCC(=N)NS(N)(=O)=O)cs1 | 3 | 1.2 | 2.8 | 6.6 | 0.84 |
| CN1CC(C(=O)N[C@]2(C)O[C@@]3(O)[C@@H]4CCCN4C(=O)C(Cc4ccccc4)N3C2=O)C=C2c3cccc4[nH]cc(c34)C[C@H]21 (some centres not stated) | 4 | 3.6 | 2.1 | 15 | 0.02 |
| CC(=O)O[C@H]1C[C@@H]2CC[C@@H]3[C@H](CC[C@@]4(C)[C@H]3C[C@H](N3CC[N+](C)(C)CC3)[C@@H]4OC(C)=O)[C@@]2(C)C[C@@H]1N1CC[N+](C)(C)CC1 | 1.9 | 0.35 | 1.9 | 3 | 0.98 |
| C[C@H]1O[C@@H](O[C@H]2[C@@H](O)C[C@H](O[C@H]3[C@@H](O)C[C@H](O[C@H]4CC[C@@]5(C)[C@H](CC[C@@H]6[C@@H]5C[C@@H](O)[C@]5(C)[C@@H](C7=CC(=O)OC7)CC[C@]65O)C4)O[C@@H]3C)O[C@@H]2C)C[C@H](O)[C@@H]1O | 40 | 4.1 | 38 | 1.7 |  |
| CC[C@@]1(O)C(=O)OCc2c1cc1n(c2=O)Cc2c-1nc1cc(F)c(C)c3c1c2[C@@H](N)CC3 | 7.6 | 0.44 | 6.7 | 0.96 |  |
| CC(O)Cn1cnc2c1c(=O)n(C)c(=O)n2C (configuration not stated) | 8.39 | 0.59 | 7.8 | 1.17 |  |
| CC(=O)OCC1=C(C(=O)O)N2C(=O)C(NC(=O)CC#N)[C@H]2SC1 (some centres not stated) | 2.21 | 0.49 | 2.02 | 3.69 |  |
| CO/N=C1\CN(c2nc3c(cc2F)c(=O)c(C(=O)O)cn3C2CC2)CC1CN (configuration not stated) | 8.1 | 3.52 | 8.3 | 7.2 | 0.3 |

| SMILES | MRT [h] | Vd [L/kg] | half-life [h] | clearance [mL/min/kg] | fraction unbound |
| --- | --- | --- | --- | --- | --- |
| CN(C)CC/C=C1\c2ccccc2COc2ccccc21 | 15 | 12 | 15 | 14 |  |
| CN1[C@@H]2C[C@@H](OC(=O)C(CO)c3ccccc3)C[C@H]1[C@@H]1O[C@@H]12 (some centres not stated) | 3.2 |  |  |  |  |
| COc1ccc(/C=C\c2cc(OC)c(OC)c(OC)c2)cc1NC(=O)C(N)CO (configuration not stated) | 0.32 | 0.44 | 0.26 | 22.6 |  |
| CC(O)C(=O)Nc1c(I)c(C(=O)NC(CO)CO)c(I)c(C(=O)NC(CO)CO)c1I (configuration not stated) | 2.5 | 0.28 | 2.1 | 1.9 | 1 |
| C[C@@H](O)C1C(=O)N2C(C(=O)O)=C(SCCNC=N)C[C@H]12 (some centres not stated) | 1.3 |  | 0.95 | 3 |  |
| COc1cccc2c1c(NS(=O)(=O)c1ccc(Cl)s1)nn2Cc1cccc(CNC(=O)C(C)(C)O)c1 | 5.43 | 1.65 | 13.5 | 5.1 |  |
| CC(=O)OC1=C2C(C)[C@@H](OC(=O)C(O)C(NC(=O)c3ccccc3)c3ccccc3)C[C@@](O)([C@@H](OC(=O)c3ccccc3)[C@@H]3[C@]4(OC(C)=O)CO[C@@H]4C[C@H](O)[C@@]3(C)C1=O)C2(C)C (some centres not stated) | 7.8 | 3 | 11 | 6.4 | 0.12 |
| CN(C)CCCN1c2ccccc2CCc2ccccc21 |  |  |  |  | 0.075 |
| CC[C@@H](CO)NC(=O)C1C=C2c3cccc4[nH]cc(c34)C[C@H]2N(C)C1 (some centres not stated) | 2.25 | 0.96 | 1.85 | 7.18 |  |
| CC(C)(O)c1ccccc1CC[C@@H](SCC1(CC(=O)O)CC1)c1cccc(/C=C/c2ccc3ccc(Cl)cc3n2)c1 | 3.8 | 0.15 | 5 | 0.68 |  |
| Cc1cc(=O)n(-c2ccccc2)[nH]1 | 2.65 | 0.23 | 2.36 | 1.42 | 0.89 |
| Cc1[nH]cnc1CN1CCc2c(c3ccccc3n2C)C1=O | 2.1 | 1.1 | 1.6 | 8.7 |  |
| COC(C(=O)N1Cc2[nH]nc(NC(=O)c3ccc(N4CCN(C)CC4)cc3)c2C1)c1ccccc1 (configuration not stated) | 6.8 | 2.5 | 25 | 6.1 |  |
| CCCn1c(=O)c2[nH]c(C34CC5CC(CC3C5)C4)nc2n(CCC)c1=O | 14.1 | 4.3 | 18.1 | 5 |  |
| O=c1[nH]c(=O)n(C2CCCO2)cc1F (configuration not stated) | 10.8 | 0.62 | 8.69 | 0.95 |  |
| Cc1ccc(-n2nccn2)c(C(=O)N2CCN(c3nc4cc(Cl)ccc4o3)CC[C@H]2C)c1 | 13.8 | 0.69 | 10.4 | 0.84 | 0.05 |
